Values joined by “and” are separate entries in the source; they are usually repeats but may differ in a detail not shown here. Identical values can stand only once.
Assays:
PtCAL-1a/PtCAL-2a = biological target: T1, PtCAL-1a/PtCAL-2a (Phlegmariurus tetrastichus, UniProt P0DXL1+P0DXL3); assay: In vitro reactions with apoplastic PtCAL-1a/PtCAL-2a (formation of 9, decarboxylation of 3, Zn chelator); format: biochemical
T1 construct: N-terminal signal peptide[58], which would be cleaved during processing and trafficking of these proteins; made in house; host or cells: Nicotiana benthamiana leaves (Agrobacterium transient co-expression, pEAQ-HT), concentrated apoplast extract
T1 sequence (P0DXL1 22-280): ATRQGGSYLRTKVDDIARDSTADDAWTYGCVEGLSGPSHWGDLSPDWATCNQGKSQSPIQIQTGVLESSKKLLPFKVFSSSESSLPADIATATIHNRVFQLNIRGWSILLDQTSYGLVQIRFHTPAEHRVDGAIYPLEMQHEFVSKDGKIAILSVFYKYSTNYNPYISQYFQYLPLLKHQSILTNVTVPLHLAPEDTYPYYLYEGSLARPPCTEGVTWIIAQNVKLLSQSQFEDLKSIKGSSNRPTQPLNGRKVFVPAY
T1 sequence (P0DXL3 24-284): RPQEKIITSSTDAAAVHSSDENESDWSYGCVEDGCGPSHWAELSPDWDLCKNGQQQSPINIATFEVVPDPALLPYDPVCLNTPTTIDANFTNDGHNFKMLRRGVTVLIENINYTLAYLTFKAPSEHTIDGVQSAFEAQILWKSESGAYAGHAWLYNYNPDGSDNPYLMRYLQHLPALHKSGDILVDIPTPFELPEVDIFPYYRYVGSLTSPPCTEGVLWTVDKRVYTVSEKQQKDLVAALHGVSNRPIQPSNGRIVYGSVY
Excerpt: The three CAL proteins identified in this study have predicted N-terminal signal peptides, which were identified using the TargetP-2.0 server (https://services.healthtech.dtu.dk/service.php?TargetP-2.0)[58]. […] To assess this possibility, CAL genes with or without C-terminal 6xHis tags were transiently expressed in N. benthamiana, as described above. Each CAL gene was expressed individually; also, PtCAL-1a and PtCAL-2a were transiently co-expressed in the same leaf because we had found them to cofunction in Lycopodium alkaloid biosynthesis. At 4 days after Agrobacterium infiltration, apoplast protein extracts were isolated using the infiltration–centrifugation method, much as previously described. Two leaves per reaction were excised from the plant and submerged in ice-cold apoplast extraction buffer (100 mM MES, 300 mM NaCl, pH 5.5) in an open-capped 50 ml Falcon tube and these tubes were placed in a plastic vacuum chamber attached to a Welch Model 2025 vacuum pump. The chamber was brought down to full vacuum and after 2 min at this pressure, the vacuum was slowly released to allow for buffer to infiltrate the leaf apoplastic space. Buffer-infiltrated leaves were carefully removed from the Falcon tubes, blotted dry with paper towels and were then rolled into Parafilm and placed in a plungerless 5 ml plastic syringe. The syringe was placed in a 15 ml Falcon tube and this was then centrifuged at 1,000g and 4 °C for 10 min to collect apoplast extract. The resulting extract was centrifuged at 10,000g and 4 °C for 15 min to pellet any larger cellular debris and the supernatant was concentrated using an Amicon Ultra-4 Centrifugal Filter Unit (10 kDA MWCO, MilliporeSigma UFC501024). Protein concentrations were measured using the BIO-RAD Protein Assay or Bradford assay (Abcam 119216) and adjusted with apoplast extraction buffer to a final concentration between 0.5 and 1.5 mg ml^−1. Aliquots of the extracts were snap frozen in liquid nitrogen and stored at −80 °C.
Reactions with CAL-enriched apoplast were routinely performed in low-pH potassium phosphate buffer (50 mM potassium phosphate, 100 mM NaCl, pH 5.9) at a volume of 20 µl. For PtCAL-1a/PtCAL-2a, these reactions contained approximately 1.4 µg of apoplast protein for each CAL (final concentration of 0.07 µg µl^−1). Control reactions used apoplast from leaves expressing only one CAL or with apoplast generated from GFP-expression N. benthamiana leaves. The requisite substrates for this reaction were generated through the activities of in vitro PtPIKS-1 and PtCYP782C1 enzyme reactions. […]. To generate 3 and 4 as potential substrates, 1 µg of previously purified PtPIKS-1 enzyme[23] and 150 µM 1 and 300 µM malonyl-CoA were added directly to the CAL reaction mixtures. After thorough mixing, reactions were incubated at room temperature. An alternative route for producing 3 and 4 independently of thioester intermediates was achieved by mixing stocks of 1 (10 mM in water) and 2 (10 mM in water; always prepared fresh to minimize compound decomposition) in equal proportion, followed by incubation at room temp for 1–2 h, as these two substrates can non-enzymatically condense to yield 3 (which can spontaneously decarboxylate to produce 4). A 2 µl aliquot of this mixture was then added as a component of the PtCAL-1a/PtCAL-2a enzyme reaction (20 µl total reaction volume) in addition to the PtCYP782C1 microsomal reaction mixture. After predesignated incubation times, reactions were quenched by diluting tenfold into ACN with 0.1% formic acid.
To evaluate the potential decarboxylation of β-keto acid substrates by PtCAL-1/PtCAL-2 and PtCAL-3, only 3 or 2, respectively, were added as substrate. PtCAL-1/PtCAL-2 reactions were quenched by diluting aliquots tenfold into ACN with 0.1% formic acid and were subsequently analysed through HILIC LC–MS. PtCAL-3 reactions were quenched by mixing aliquots with an equal volume of water with 0.2% formic acid and were then analysed through C18 LC–MS. […]

[1] = Stability of PtCYP782C1 products in leaf extract incubated at room temperature; format: physicochemical; settings: samples incubated at room temperature for 1 h
Protocol: The production of (2S, 4S)-6 and (2S, 4R)-6 was consistent with our hypothesis for elimination-mediated formation of the proposed diene (8). Because formation of 8 would require oxidation of the O-acetylated substrate(s), we next screened CYP and 2OGD family enzymes found in cluster131. […] This coincided with the presence of two new compounds: one that corresponded to a single oxidation (desaturation) of the O-acetylated substrate (7, [M + H]^+ = m/z 184.1332, retention time 1.86 min), as well as another which shared the same exact mass as 8 ([M + H]^+ = m/z 124.1121, retention time 1.93 min). […] Although this limited our ability to access authentic standards, tandem mass spectrometry (MS/MS or MS^2) analysis supported the proposed structures of 7 and 8 and ultraviolet (UV) analysis of 8 corroborated the presence of the predicted α,β-unsaturated imine in this molecule[34] (Extended Data Fig. 2c,d). […]
Extended Data Fig. 2 Functional characterization of PtCYP782C1. a) Transient expression of PtCYP782C1 with a biosynthetic module for the production of 6 diastereomers (PtLDC, PtCAO, PtPIKS, PtSDR-1 or PtSDR-2 and PtACT-1) in N. benthamiana. […] Product abundance is calculated as the integration of the peak generated in the EIC for each mass ion. g) Relative activity of PtCYP782C1 microsomes at varying pH, as determined via production of both 7 and 8. […]

several insect species = tested on: several insect species; set-up: method as in PMID 11804518; settings: cited from earlier work

O=C(O)CC(=O)CC1CCCCN1 (centres unmarked) [compound 3, 4-(2-piperidyl)acetoacetic acid]
ratio of 4 ion abundance (m/z 142.1226) to that of 3 (m/z 186.1125) (PtCAL-1a/PtCAL-2a; PtCAL-1a/PtCAL-2a +3 (ED 4h)): 31.4694 and 27.1428 and 38.6295
ratio of 4 ion abundance (m/z 142.1226) to that of 3 (m/z 186.1125) (PtCAL-1a/PtCAL-2a; PtCAL-1a/PtCAL-2a +3, 0.25 hrs (ED 4g)): 66.6374 and 57.9149 and 54.0594
ratio of 4 ion abundance (m/z 142.1226) to that of 3 (m/z 186.1125) (PtCAL-1a/PtCAL-2a; PtCAL-1a/PtCAL-2a +3, 0.5 hrs (ED 4g)): 59.9271 and 67.8727 and 55.7877
ratio of 4 ion abundance (m/z 142.1226) to that of 3 (m/z 186.1125) (PtCAL-1a/PtCAL-2a; PtCAL-1a/PtCAL-2a +3, 1 hrs (ED 4g)): 70.6508 and 59.4497 and 51.4084
ratio of 4 ion abundance (m/z 142.1226) to that of 3 (m/z 186.1125) (PtCAL-1a/PtCAL-2a; PtCAL-1a/PtCAL-2a +3, 2 hrs (ED 4g)): 57.1082 and 53.747 and 49.4186

CC(=O)OC(C)CC1=NCCCC1 (centres unmarked) [compound 7]
stability of compound in sample [1]: almost entirely lost

C/C=C/C1=NCCCC1 [compound 8]
stability of compound in sample [1]: almost entirely lost

C/C=C1\[C@H]2C=C(C)C[C@]1(N)c1ccc(=O)[nH]c1C2 [compound 17, huperzine A]
antifeedant activity (several insect species): antifeedant activity

Source: paper PMC10700139 (Nature, 2023)
